Measurements published in patent US8097650B2, “Method of treating a condition associated with phosphorylation of TASK-1” (The Trustees of Columbia University In The City of New York, priority 2005, dated 2012).

Legend:
TASK-1 = assay: C-PAF-sensitive TASK-1 current in mouse ventricular myocytes dialyzed with PKCε peptides; assay type: cell-based; settings: modified Tyrode's (high K+), scrambled peptide in pipette
Method: Mouse ventricular myocytes were isolated using a retrograde coronary perfusion method previously published (Kuznetsov V et al. (1995) Circ Res 76: 40-52). All the experiments were carried out according to the guidelines issued by the IACUC of Columbia University. Adult mice 2 or 3 months old, were anaesthetized with a xylazine and ketamine mix and heparinized, the heart was quickly removed and the ascending aorta was connected to the outlet of a Langendorff column and perfused with 20-25 ml of a buffer solution (37° C.) containing (mM):NaCl, 112; KCl, 5.4; NaHCO3, 4.2; MgCl2, 1.6; HEPES, 20; glucose, 5.4; NaH2PO4, 1.7; taurine, 10; L-glutamine, 4.1; MEM amino acids solution, 2%; MEM vitamin solution, 1%; adjusted to pH 7.4, and equilibrated with 100% O2. Next, the heart was perfused with an enzyme solution containing collagenase (0.2 mg/ml; Worthington Type II) and trypsin (0.04 mg/ml) at 35° C. for 10-12 min. After this perfusion, the atria were removed and the ventricles minced and transferred to a 50 ml flask with an enzyme solution containing collagenase (0.45 mg/ml), trypsin (0.08 mg/ml), Ca^2+ (0.75 mM) and bovine serum albumin (BSA; 4.8 mg/ml). The flask was shaken vigorously for 5-10 min at 32° C. before the supernatant was removed and the cells were collected by centrifugation, this operation was repeated two or three times and additional disaggregated cells were collected. After centrifugation, the myocytes were resuspended in the buffer solution containing Ca^2+ (0.75 mM) and BSA and stored at room temperature until use. Rod-shaped, Ca^2+-tolerant myocytes, obtained with this procedure, were used within 6 h of dissociation. Measurements were performed only on quiescent myocytes with clear striations
The myocyte suspension or the coverslip with CHO cells was placed into a perfusion chamber, mounted on the stage of an inverted microscope. Unless otherwise indicated, CHO cells were superfused at room temperature with standard external Tyrode's buffer, containing (mM): NaCl, 140; KCl, 5.4; CaCl2, 1; MgCl2, 1; HEPES, 5; glucose, 10; adjusted to pH 7.4. Recordings were begun after the current reached a stable baseline (usually 3 to 4 min after initial cell rupture). In myocytes, TASK-1 current is small and exists in the presence of numerous larger K^+ currents. […] Membrane potential and current were measured in the whole cell configuration using borosilicate glass pipettes with a tip resistance between […] and filled with a pipette solution containing (mM): aspartic acid, 130; KOH, 146; NaCl, 10; CaCl2, 2; EGTA, 5; HEPES, 10; MGATP, 2; pH 7.2. […] Myocytes treated with the peptides were monitored continuously beginning immediately after rupture to detect the occurrence of any arrhythmias during dialysis of the peptide. […]

[1] = system: mouse ventricular myocytes; assay: Action potentials in paced mouse ventricular myocytes (current clamp); assay type: cell-based; settings: C-PAF 185 nM
Method: Adult mice, 2-3 months old, were anesthetized with ketamine/xylazine and their hearts were removed according to protocols approved by the Columbia University-IACUC. Experiments were performed on single rod-shaped, quiescent ventricular myocytes dissociated using a standard retrograde collagenase perfusion (Kuznetsov V et al. (1995) Circ Res 76: 40-52) from hearts of mice that were either wild-type (WT), or PAFR knockouts (KO). Both WT and KO mice were bred on a C57/B16 background. The derivation of the KO mice has been described previously (Hoffman, B F et al.(1996) J Cardiovasc Electrophysiol 7:120-133).
Prior to electrophysiological measurements, cells were placed into the perfusion chamber and superfused at room temperature with Tyrode's buffer (in mM: NaCl, 140; KCl, 5.4; CaCl2 1; MgCl2, Hepes, 5; Glucose, 10; pH 7.4). […]
Current and voltage protocols were generated using Clampex 7.0 software applied by means of an Axopatch 200B amplifier and a Digidata 1200 interface (Axon Instruments). […] Data were analyzed using pCLAMP 8.0 (Axon) and Origin 6.0 (Microcal) and are presented as mean±SEM. Steady-state current was determined by computer calculation of average current over a time period of at least 5 s. […] Records have been corrected for the junction potential, which was measured to be 9.8 mV.

## CCCCCCCCCCCCCCCCOC[C@H](COP(=O)([O-])OCC[N+](C)(C)C)OC(=O)NC [C-PAF, carbamyl-platelet-activating factor]
TASK-1
  reversal potential of C-PAF-sensitive current: −26.1±1.9 mV
[1]; 3 min perfusion
  cells in which membrane potential returned to normal during agonist perfusion: 8 of 9
[1]; paced WT myocytes
  delay before C-PAF-evoked responses: 94 ± 21 s
